Entries after “also recorded” stand apart in the source; their conditions may differ.
Key:
[1] = tested on: patients; conditions: cited from earlier work; for depression as adverse effect (literature): literature and Physicians' Desk Reference
[2] = tested on: patients; assay: Hamilton 24 (HAMD) depression scale, multicenter randomized controlled clinical study; type: in vivo, human; conditions: conclusion from the 4-week clinical study, vs ranitidine-group and baseline
Text: The number of cases investigated was 119, which assured that the obtained data reach the level of statistical significance. […] During the statistical evaluation a probability level of p≦0.05 was regarded as significant.
Multicenter, randomized, controlled study; the study can be regarded blind with respect to the psychiatrist's assessment of the results.
4-week treatment period with the administration of the test—or reference medication.
On the occasion of the 1st visit (week-1-0) the recording of the medical history, physical examination, endoscopy (optional), the signing of the consent form, then the assessment of the extent of anxiety during the psychiatric examination, by using the Hamilton 24 (HAMD) and the MADRS (Montgomery Asberg) depression scales as well as the Hamilton Anxiety Rating Scale (HAMA). […]
(§1) The describing statistics (median, quartiles, average, dispersion, case-number, minimum and maximum values) were given for all numerical data variables (age, body weight, height, overall scores for HAMD and MADRS, as well as HAMA). […] The global parameters (the patient's opinion of the changes in the mood and the general condition, the physician's opinion of the general condition of the patient, and the psychiatrist's opinion of the changes in depression and anxiety) were assessed by applying the median-test (SAS NPAR1 WAY method).

[3] = tested on: patients; conditions: 4-week clinical study
Text: This is followed by a four-week (week 0-4) H2-blocker therapy performed on the basis of the former randomization applying either Quamatel®- or Zantac®—therapy. During randomization they have also taken the female-male ratio into consideration.
as §1

SMILES	depression as adverse effect (literature) [1]	antidepressant / depression-reducing effect, conclusion of the study [2]	gastrointestinal efficacy compared with ranitidine [3]	efficacy in schizophrenia (literature case studies) ([1]; case studies)
CN/C(=N/CCSCc1nc[nH]c1C)NC#N [cimetidine]	marked depressant effect			
NC(N)=Nc1nc(CSCCC(N)=NS(N)(=O)=O)cs1 [famotidine]	depression as one of the adverse reactions	specific depression-reducing effect; also recorded: significantly detectable antidepressant effect	practically displaying the same gastrointestinal efficacy	effective in the management of schizophrenia
CNC(=C[N+](=O)[O-])NCCSCc1ccc(CN(C)C)o1 [ranitidine]	development of depression could be unquestionably associated with ranitidine-therapy			
